Measurements as given in ChEMBL document CHEMBL3044753, “Polyamines May Modulate Both G Protein-Coupled Receptors and G Proteins” (Med Chem Res, 2004).

How the values were obtained:
Format in all cases: functional, tissue-based
Right cardiac atrium [1] = assay: Negative […] activity in electrically-paced Cavia porcellus (guinea pig) right atrium assessed as effect on force measured after 60 min by isometric transducer analysis in presence of benextramine/4-DAMP mustard; conditions: 1 h
Right cardiac atrium [2] = assay: Negative […] activity in electrically-paced Cavia porcellus (guinea pig) right atrium assessed as effect on force measured after 60 min by isometric transducer analysis in absence of benextramine/4-DAMP mustard; conditions: 1 h
Left cardiac atrium [3] = assay: Negative ionotropic activity in electrically-paced Cavia porcellus (guinea pig) left atrium measured after 60 min by isometric transducer analysis in presence of benextramine/4-DAMP mustard; conditions: 1 h
Left cardiac atrium [4] = assay: Negative ionotropic activity in electrically-paced Cavia porcellus (guinea pig) left atrium measured after 60 min by isometric transducer analysis in absence of benextramine/4-DAMP mustard; conditions: 1 h
Left cardiac atrium [5] = assay: Negative ionotropic activity in electrically-paced Cavia porcellus (guinea pig) left atrium measured immediately by isometric transducer analysis in absence of benzalkonium/prazosin
Right cardiac atrium [6] = assay: Negative ionotropic activity in electrically-paced Cavia porcellus (guinea pig) right atrium assessed as effect on force measured immediately by isometric transducer analysis in absence of benzalkonium/prazosin

Row | Compound | EC50 (Right cardiac atrium [1]) [pM] | EC50 (Right cardiac atrium [2]) [pM] | EC50 (Left cardiac atrium [3]) [pM] | EC50 (Left cardiac atrium [4]) [pM] | EC50 (Left cardiac atrium [5]) [pM] | EC50 (Right cardiac atrium [6]) [pM]
1 | CCCCCCCCCCCCNC(=O)[C@@H](N)CCCCN [N-DODECYL LYSINE AMIDE] | 282 | 417 | 363 | 417 | – | –
2 | C#CCOC(=O)C1=CCCN(C)C1 [ARECAIDINE PROPARGYL ESTER] | – | – | – | – | 4570 | 1700
